Assay results from patent US20020091107A1 (published 2002).

| melting point [°C] | Structure (SMILES) |
| --- | --- |
| 70 | CC(=O)NC[C@H]1CN(c2ccc(/C=C3\C(=O)N(c4ccccc4)N=C3C(C)(C)C)cc2)C(=O)O1 |
| 193 to 195 | CC(=O)NC[C@H]1CN(c2ccc(/C=C3/C(=O)N(C)c4ccccc43)cc2)C(=O)O1 |
